Patent publication US20020141966A1, “Compositions for treatment of malignant effusions, and methods of making and using the same” (priority 2000, published 2002)

Legend:
[1] = system: malignant effusions associated with non-small cell lung cancer; conditions: cited from earlier work
[2] = system: human colon carcinoma cell line HT29; experiment: Survival study in HT29 colon cancer xenograft mouse model; type: in vivo, SCID mice; conditions: Paclitaxel 40 mg/kg, IP on day 4 post tumor cell implantation
Description: PACLIMER was provided as in powder and suspended in the vehicle (0.1% Tween80 in normal saline) just before administration. Paclitaxel was purchased from Bristol-Myers Squib Co., which was provided as a solution at a concentration of 6 mg/ml. The paclitaxel solution was diluted to 1 mg/ml with 0.9% sodium chloride just before use.
The human colon carcinoma cell line HT29 was used to set up the colon cancer xenograft mouse model. SCID mice were injected i.p. with 10 million cells. This generally results in death from the tumor metastasis and ascites around 30 days after tumor implantation. HT29 cells growing as a monolayer were harvested with trypsin and washed with PBS. The packed cells were resuspended in PBS (10 million cells per ml PBS). 48 SCID mice (C.B.17/Icr SCID, 8-10 weeks of age) were injected i.p. with 1 ml of the HT29 cell suspension (10 million cells for each mouse). 4 days after tumor implantation, the animals were grouped randomly. […]
For the ascites study, PACLIMER was to be given when obvious ascites was found in the mice. […] On 1, 5, and 10 days after treatment, 4 mice in each group was sacrificed at each time point and the ascites volumes were measured. […]

[3] = single 125 mg/m2 dose diluted in saline, intracavitary

CC(=O)O[C@H]1C(=O)[C@@]2(C)[C@H]([C@H](OC(=O)c3ccccc3)[C@]3(O)C[C@H](OC(=O)[C@H](O)[C@@H](NC(=O)c4ccccc4)c4ccccc4)C(C)=C1C3(C)C)[C@]1(OC(C)=O)CO[C@@H]1C[C@@H]2O [Paclitaxel, paclitaxel]
complete response rate [1, 3]: 28.6% | total response rate [1, 3]: 92.9% | patients with total tumor mass reduced by more than 50% ([1]; single 125 mg/m2 dose, following the treatment): one patient out of fourteen | Median Survival [2]: 44 days
